Numbering of substitutions follows the chain as printed. Read-outs that look alike come from different tables or passages of the source.
Experiments:
[1] = tested on: U87MG pLVX-IDH2 R140Q-neo cells; assay: U87MG pLVX-IDH2 R140Q-neo cell based assay, 2-HG in media by LC-MS at 48 hours
In short: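 U87MG cells stably expressing IDH2 R140Q were seeded overnight, then exposed to compound at 0.2% final DMSO at 37 °C, 5% CO2. 2-HG in the medium was quantified by LC-MS at 48 h. Growth inhibition was read by CellTiter-Glo luminescence at 72 h.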

[2] = target: T1, IDH2 R172K (Homo sapiens, UniProt P48735, R172K); assay: IDH2 R172K enzymatic assay (NADPH cofactor depletion, diaphorase/resazurin readout); format: biochemical; details: read-out: Enz R172K
T1 sequence (P48735 40-452 R172K): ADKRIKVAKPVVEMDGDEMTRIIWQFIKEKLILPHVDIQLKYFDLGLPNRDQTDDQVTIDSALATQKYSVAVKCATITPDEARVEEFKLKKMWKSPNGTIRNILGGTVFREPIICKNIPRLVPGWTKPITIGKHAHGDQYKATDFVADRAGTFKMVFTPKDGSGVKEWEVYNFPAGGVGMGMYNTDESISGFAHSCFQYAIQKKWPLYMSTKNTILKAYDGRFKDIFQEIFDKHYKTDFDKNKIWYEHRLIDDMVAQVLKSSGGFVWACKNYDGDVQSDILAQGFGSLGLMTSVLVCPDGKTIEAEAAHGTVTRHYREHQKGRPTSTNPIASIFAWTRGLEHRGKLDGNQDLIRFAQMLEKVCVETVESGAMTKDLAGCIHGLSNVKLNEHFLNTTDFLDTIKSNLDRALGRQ
In short: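 Test compounds are incubated with the mutant enzyme for one hour at ambient temperature. A substrate mix of 50 μM NADPH plus 6.3 mM α-KG initiates turnover, which proceeds for one hour. Diaphorase and resazurin then halt the reaction by depleting the cofactor and convert the remaining NADPH into a fluorescent signal.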

[3] = target: T2, IDH2 R140Q (Homo sapiens, UniProt P48735, R140Q); assay: IDH2 R140Q enzymatic assay (cofactor depletion, similar format); format: biochemical; details: read-out: Enz R140Q
T2 sequence (P48735 40-452 R140Q): T1 sequence (P48735 40-452 R172K) with R101Q, K133R

Row | IC50 ([1]; Homo sapiens, U-87 MG) | IC50 [2] | IC50 [3] | IC50 [1] | SMILES
1 | < 100 nM | < 100 nM | 100 to 1000 nM | – | CC1(CNc2nc(Nc3ccnc(C(F)(F)F)c3)nc(-c3cccc(C(F)(F)F)n3)n2)COC1 [Compound 550, N-(3-Methyl-oxetan-3-ylmethyl)-6-(6-trifluoromethyl-pyridin-2-yl)-N′-(2-trifluoromethyl-pyridin-4-yl)-[1,3,5]triazine-2,4-diamine]
2 | < 100 nM | < 100 nM | 100 to 1000 nM | – | CC(C)Nc1nc(Nc2ccnc(C(F)F)c2)nc(-c2cccc(C(F)(F)F)n2)n1 [Compound 551, N-(2-Difluoromethyl-pyridin-4-yl)-N′-isopropyl-6-(6-trifluoromethyl-pyridin-2-yl)-[1,3,5]triazine-2,4-diamine]
3 | < 100 nM | 100 to 1000 nM | 100 to 1000 nM | – | CC(CO)CNc1nc(Nc2ccnc(C(F)(F)F)c2)nc(-c2cccc(C(F)(F)F)n2)n1 (stereo not drawn) [Compound 552, 2-Methyl-3-[4-(6-trifluoromethyl-pyridin-2-yl)-6-(2-trifluoromethyl-pyridin-4-ylamino)-[1,3,5]triazin-2-ylamino]-propan-1-ol]
4 | < 100 nM | 1000 to 10000 nM | 100 to 1000 nM | – | CCCn1cc(Nc2nc(NC(C)C)nc(-c3cccc(C(F)(F)F)n3)n2)cn1 [Compound 555, N-Isopropyl-N′-(1-propyl-1H-pyrazol-4-yl)-6-(6-trifluoromethyl-pyridin-2-yl)-[1,3,5]triazine-2,4-diamine]
5 | < 100 nM | < 100 nM | 100 to 1000 nM | – | FC(F)(F)c1cc(Nc2nc(NC3CC4CCC3O4)nc(-c3cccc(C(F)(F)F)n3)n2)ccn1 (stereo not drawn) [Compound 556, N-(7-Oxa-bicyclo[2.2.1]hept-2-yl)-6-(6-trifluoromethyl-pyridin-2-yl)-N′-(2-trifluoromethyl-pyridin-4-yl)-[1,3,5]triazine-2,4-diamine]
6 | < 100 nM | < 100 nM | 100 to 1000 nM | – | COC1(c2cc(Nc3nc(NC(C)C)nc(-c4cccc(C(F)(F)F)n4)n3)ccn2)CC1 [Compound 559, N-Isopropyl-N′-[2-(1-methoxy-cyclopropyl)-pyridin-4-yl]-6-(6-trifluoromethyl-pyridin-2-yl)-[1,3,5]triazine-2,4-diamine]
7 | < 100 nM | < 100 nM | 100 to 1000 nM | – | CC(C)(O)CNc1nc(Nc2cc(F)cc(F)c2)nc(-c2cccc(C(C)(F)F)n2)n1 [Compound 560, 1-[4-[6-(1,1-Difluoro-ethyl)-pyridin-2-yl]-6-(3,5-difluoro-phenylamino)-[1,3,5]triazin-2-ylamino]-2-methyl-propan-2-ol]
8 | < 100 nM | < 100 nM | 100 to 1000 nM | – | CC(C)Nc1nc(Nc2cc(Cl)cc(S(C)(=O)=O)c2)nc(-c2cccc(C(F)(F)F)n2)n1 [Compound 561, N-(3-Chloro-5-methanesulfonyl-phenyl)-N′-isopropyl-6-(6-trifluoromethyl-pyridin-2-yl)-[1,3,5]triazine-2,4-diamine]
9 | < 100 nM | < 100 nM | 100 to 1000 nM | – | CC(C)(CO)Nc1nc(Nc2ccnc(C(F)(F)F)c2)nc(-c2cccc(C(F)(F)F)n2)n1 [Compound 562, 2-Methyl-2-[4-(6-trifluoromethyl-pyridin-2-yl)-6-(2-trifluoromethyl-pyridin-4-ylamino)-[1,3,5]triazin-2-ylamino]-propan-1-ol]
10 | < 100 nM | < 100 nM | 100 to 1000 nM | – | CC(C)Nc1nc(Nc2ccnc(C3CC3)c2)nc(-c2cccc(C(F)(F)F)n2)n1 [Compound 563, N-(2-Cyclopropyl-pyridin-4-yl)-N′-isopropyl-6-(6-trifluoromethyl-pyridin-2-yl)-[1,3,5]triazine-2,4-diamine]
11 | < 100 nM | < 100 nM | 100 to 1000 nM | – | CC(C)(C)Nc1nc(Nc2ccnc(C3CC3)c2)nc(-c2cccc(C(F)(F)F)n2)n1 [Compound 564, N-tert-Butyl-N′-(2-cyclopropyl-pyridin-4-yl)-6-(6-trifluoromethyl-pyridin-2-yl)-[1,3,5]triazine-2,4-diamine]
12 | < 100 nM | < 100 nM | 100 to 1000 nM | – | CC1(Nc2nc(Nc3ccnc(C4CC4)c3)nc(-c3cccc(C(F)(F)F)n3)n2)CC1 [Compound 565, N-(2-Cyclopropyl-pyridin-4-yl)-N′-(1-methyl-cyclopropyl)-6-(6-trifluoromethyl-pyridin-2-yl)-[1,3,5]triazine-2,4-diamine]
13 | < 100 nM | < 100 nM | 100 to 1000 nM | – | CC(C)(C)Nc1nc(Nc2ccnc(C(C)(F)F)c2)nc(-c2cccc(C(F)(F)F)n2)n1 [Compound 567, N-tert-Butyl-N′-[2-(1,1-difluoro-ethyl)-pyridin-4-yl]-6-(6-trifluoromethyl-pyridin-2-yl)-[1,3,5]triazine-2,4-diamine]
14 | < 100 nM | 100 to 1000 nM | 100 to 1000 nM | – | OC1CC1Nc1nc(Nc2ccnc(C(F)(F)F)c2)nc(-c2cccc(C(F)(F)F)n2)n1 (stereo not drawn) [Compound 568, 2-[4-(6-Trifluoromethyl-pyridin-2-yl)-6-(2-trifluoromethyl-pyridin-4-ylamino)-[1,3,5]triazin-2-ylamino]-cyclopropanol]
15 | – | 100 to 1000 nM | 100 to 1000 nM | 100 to 1000 nM | OC1CC1Nc1nc(Nc2ccnc(C(F)(F)F)c2)nc(-c2cccc(C(F)(F)F)n2)n1 (stereo not drawn) [Compound 569, 2-[4-(6-Trifluoromethyl-pyridin-2-yl)-6-(2-trifluoromethyl-pyridin-4-ylamino)-[1,3,5]triazin-2-ylamino]-cyclopropanol]
16 | < 100 nM | < 100 nM | 100 to 1000 nM | – | CC(C)Nc1nc(Nc2cc(F)cc(S(C)(=O)=O)c2)nc(-c2cccc(C(F)(F)F)n2)n1 [Compound 570, N2-(3-fluoro-5-(methylsulfonyl)phenyl)-N4-isopropyl-6-(6-(trifluoromethyl)pyridin-2-yl)-1,3,5-triazine-2,4-diamine]
17 | < 100 nM | 100 to 1000 nM | 100 to 1000 nM | – | CC(C)CNc1nc(Nc2cccc(S(C)(=O)=O)c2)nc(-c2cccc(C(F)(F)F)n2)n1 [Compound 571, N2-isobutyl-N4-(3-(methylsulfonyl)phenyl)-6-(6-(trifluoromethyl)pyridin-2-yl)-1,3,5-triazine-2,4-diamine]
18 | < 100 nM | 100 to 1000 nM | 100 to 1000 nM | – | CC(C)Nc1nc(Nc2ccnc(Cl)c2)nc(-c2cccc(C(F)(F)F)n2)n1 [Compound 572, N2-(2-chloropyridin-4-yl)-N4-isopropyl-6-(6-(trifluoromethyl)pyridin-2-yl)-1,3,5-triazine-2,4-diamine]
19 | < 100 nM | < 100 nM | 100 to 1000 nM | – | CCC(=O)c1cc(Nc2nc(NC(C)C)nc(-c3cccc(C(F)(F)F)n3)n2)ccn1 [Compound 574, 1-{4-[4-Isopropylamino-6-(6-trifluoromethyl-pyridin-2-yl)-[1,3,5]triazin-2-ylamino]-pyridin-2-yl}-propan-1-one]
20 | < 100 nM | 100 to 1000 nM | 100 to 1000 nM | – | CC(C)Nc1nc(Nc2ccnc(C(C)(F)F)c2)nc(-c2cccc(C(C)(F)F)n2)n1 [Compound 576, 6-[6-(1,1-Difluoro-ethyl)-pyridin-2-yl]-N-[2-(1,1-difluoro-ethyl)-pyridin-4-yl]-N′-isopropyl-[1,3,5]triazine-2,4-diamine]
21 | < 100 nM | 100 to 1000 nM | 1000 to 10000 nM | – | COC(=O)N1CCC(Nc2nc(Nc3ccnc(C(F)(F)F)c3)nc(-c3cccc(C(F)(F)F)n3)n2)CC1 [Compound 577, 4-[4-(6-Trifluoromethyl-pyridin-2-yl)-6-(2-trifluoromethyl-pyridin-4-ylamino)-[1,3,5]triazin-2-ylamino]-piperidine-1-carboxylic acid methyl ester]
22 | < 100 nM | < 100 nM | 100 to 1000 nM | – | CC(C)Nc1nc(Nc2ccnc(C3(C)CC3)c2)nc(-c2cccc(C(F)(F)F)n2)n1 [Compound 581, N-Isopropyl-N′-[2-(1-methyl-cyclopropyl)-pyridin-4-yl]-6-(6-trifluoromethyl-pyridin-2-yl)-[1,3,5]triazine-2,4-diamine]
23 | < 100 nM | < 100 nM | 100 to 1000 nM | – | CC(C)Nc1nc(Nc2ccnc(C(F)(F)F)c2)nc(-c2cccc(C(C)(F)F)n2)n1 [Compound 582, 6-[6-(1,1-Difluoro-ethyl)-pyridin-2-yl]-N-isopropyl-N′-(2-trifluoromethyl-pyridin-4-yl)-[1,3,5]triazine-2,4-diamine]

— patent publication US9512107B2, “Therapeutically active compositions and their methods of use” (Agios Pharmaceuticals, Inc., priority 2012, dated 2016)
